One data set concerns Wistar male rats. Nature of the data set: Arrhythmia induced by ischemia-reperfusion (coronary ligation 3 min, 10 min reperfusion) in anesthetized rats. Format: in vivo, rat. The note with it: for ventricular fibrillation / ventricular tachycardia: total duration during 10 min reperfusion, mean±S.D.; for effect on ventricular tachycardia induced by ischemia-reperfusion: summary in words of Tables 11 and 12, vs vehicle. The procedure:
The utility of the present invention for treating or preventing arrhythmia was confirmed in a manner similar to that described in Circulation Research 56: 545-548, 1984.
Wistar male rats are used as experimental animals. Anesthesia of animal is induced by administration of 30 mg/kg to 60 mg/kg, preferably 40 mg/kg of pentobarbital sodium (preferably intraperitoneal injection). A catheter for the administration of drugs is placed in the jugular vein. Electrocardiogram (ECG) is recorded from lead II during cardiac ischemia and reperfusion. A thoracotomy is performed under artificial ventilation. Left coronary artery is ligated with silicon tube for 3 to 5 min, preferably 3 min. Reperfusion is performed by cutting snare. Total duration of ventricular tachycardia and ventricular fibrillation during 5 to 30 min, preferably 10 min reperfusion are evaluated. Test compounds are dissolved in solvent containing 10% DMSO, 10% ethanol, 30% polyethylene glycol and 50% distilled water and sodium hydrocarbonate is added to the solution to adjust final concentration to 0 to 1%, preferably 0.5%. Drugs are administrated intravenously in bolus at 15 to 60 min, preferably 30 min before reperfusion followed by 30 to 40 min, preferably 40 min infusion.
Wistar male rats (weight 250-350 g) were used. The compound (C-4) (the compound M-17 described in WO98/33797) and the compound (B-1) shown below were dissolved in solvent containing DMSO:ethanol:polyethylene glycol 300:1% aqueous sodium hydrogen carbonate solution=10:10:30:50 (volume ratio). Anesthesia was induced with intraperitoneal injection of 40 mg/kg of pentobarbital sodium. A catheter for the administration of drugs was placed in the jugular vein. Electrocardiogram (ECG) was recorded from lead II during cardiac ischemia and 10 min reperfusion. Drugs were administrated intravenously in bolus at 30 min before reperfusion followed by 40 min infusion. Solvent containing DMSO:ethanol:polyethylene glycol 300:1% aqueous sodium hydrogen carbonate solution=10:10:30:50 (volume ratio) was administrated as vehicle in a administration experiment. A thoracotomy was performed under artificial ventilation. Left coronary artery was ligated with silicon tube for 3 min. Reperfusion was performed by cutting snare. Total duration of ventricular tachycardia (VT) and ventricular fibrillation (VF) during 10 min reperfusion were evaluated.
Data are expressed as mean±S.D. Statistical analysis was performed with Welch's t-test. A value of P<0.05 was considered significant. Compound (C-4) [drawing 73]

The target of another data set is T1, cPLA2 (Homo sapiens, UniProt P47712).
T1 sequence (P47712 1-749): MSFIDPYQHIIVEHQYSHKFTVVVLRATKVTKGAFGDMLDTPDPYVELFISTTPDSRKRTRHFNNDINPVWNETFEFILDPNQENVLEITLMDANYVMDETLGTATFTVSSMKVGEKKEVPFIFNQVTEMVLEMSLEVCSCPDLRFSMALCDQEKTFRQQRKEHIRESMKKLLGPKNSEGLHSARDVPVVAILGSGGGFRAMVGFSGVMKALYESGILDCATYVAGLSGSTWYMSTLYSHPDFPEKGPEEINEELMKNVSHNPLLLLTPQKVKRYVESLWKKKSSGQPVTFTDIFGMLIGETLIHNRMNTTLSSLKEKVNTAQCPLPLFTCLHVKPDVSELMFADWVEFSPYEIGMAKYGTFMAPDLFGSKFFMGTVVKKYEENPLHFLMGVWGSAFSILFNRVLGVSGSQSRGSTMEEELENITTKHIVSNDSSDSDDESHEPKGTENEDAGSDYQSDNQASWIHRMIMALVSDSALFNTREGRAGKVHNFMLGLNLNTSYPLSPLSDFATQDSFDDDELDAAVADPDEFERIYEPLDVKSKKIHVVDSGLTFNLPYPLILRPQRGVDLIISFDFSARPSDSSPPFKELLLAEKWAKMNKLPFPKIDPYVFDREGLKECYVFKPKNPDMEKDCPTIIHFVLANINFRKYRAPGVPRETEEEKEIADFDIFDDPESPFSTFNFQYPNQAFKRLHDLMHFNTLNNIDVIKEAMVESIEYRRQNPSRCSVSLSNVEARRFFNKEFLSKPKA
Nature of the data set: cPLA2 inhibitory activity. Format: biochemical. The note with it: for IC60: 0.25 h, Table 10, same assay. As for the experimental part: The compounds of the present invention were tested for the cPLA2 inhibitory activity according to the method disclosed in […]. Roberts, […], and J. E. Putnam, J. Biol. Chem., 1991, 266, 5268-5272 as outlined below. […] The reaction mixture includes 50 mM HEPES buffer (pH 7.5), 1 mM calcium chloride, 150 mM sodium chloride, 0.1 mg/ml bovine serum albumin, and 1.7 mM dithiothreitol. To the reaction mixture was added the compound of the present invention and the substrate solution. The reaction was allowed to start by adding an enzyme and continued for 15 min at 37° C. The fatty acids released by the reaction were extracted by the method described in V. P. Dole, and H. Meinertz, J. Biol. Chem., 1960, 235, 2595-2599 and its radiation activity was measured on a liquid scintillation counter. Control was obtained by conducting the experiment in the same manner except that a compound of the present invention was not added.

Where [1] appears, read: Bolus (i.v.) + Infusion (i.v.) 0.001 mg/kg + 0.001 mg/kg/hr.
Where [2] appears, read: Bolus (i.v.) + Infusion (i.v.) 0.01 mg/kg + 0.01 mg/kg/hr.
The mark [3] stands for this setting: Bolus (i.v.) + Infusion (i.v.) 0.1 mg/kg + 0.1 mg/kg/hr.

As a reminder, the IC50 is the concentration needed to halve the response being measured. A lower IC50 goes with greater potency. A word on the melting point: it is the temperature of the solid-liquid transition. Compound `O=C1NC(=O)/C(=C/c2ccc(C(=O)NC[C@@H]3C[C@@H](SC(c4ccccc4)(c4ccccc4)c4ccccc4)CN3C(=O)c3ccccc3C(=O)c3ccc(F)cc3F)cc2)S1` [Compound B-1] displayed a melting point of 158 to 160 °C. Further, in the data set with Wistar male rats (setting [1]), the “ventricular fibrillation” value turned out to be 44.5 ± 133.3 s and the “ventricular tachycardia” value is 54.8 ± 100.9 s. For the same compound, in the data set with Wistar male rats (setting [2]), the “ventricular fibrillation” value stood at 56.5 ± 169.5 s and the “ventricular tachycardia” value was found to be 31.1 ± 62.3 s. In the data set with Wistar male rats (setting [3]), the “ventricular fibrillation” value was determined as 0.0 ± 0.0 s and the “ventricular tachycardia” value came out at 0.4 ± 0.9 s. Further, the “effect on ventricular tachycardia induced by ischemia-reperfusion” value in the data set on Wistar male rats was “significantly reduced”. Moreover, 3.7 nM corresponded to half-maximal inhibition at cPLA2 (1-palmitoyl-2-[14C]-arachidonoyl-sn-glycero-3-phosphocholine liposomes, 15 min at 37° C.) (IC50).
As to `O=C(/C=C/c1ccc(/C=C2\SC(=O)NC2=O)cc1)NC[C@@H]1C[C@@H](Oc2ccccc2C(c2ccccc2)c2ccccc2)CN1C(=O)c1ccccc1C(=O)c1ccc(F)cc1F` [Compound C-2], the IC60 against cPLA2 is 3.8 nM.
The same measure, in the same setting: as for `O=C1NC(=O)/C(=C/c2ccc(/C=C/CNC(=O)[C@@H]3C[C@@H](SC(c4ccccc4)(c4ccccc4)c4ccccc4)CN3C(=O)c3ccccc3C(=O)c3ccc(F)cc3F)cc2)S1` [Compound C-3], the figure is 5.4 nM.
On to `CC(C)CN(C(c1ccccc1)c1ccccc1)[C@@H]1C[C@@H](CNC(=O)c2ccc(/C=C3\SC(=O)NC3=O)cc2)N(C(=O)c2ccccc2C(=O)c2ccc(F)cc2F)C1` [Compound C-4], for which the figures for the “ventricular fibrillation” value in the data set on Wistar male rats (setting [1]), in the data set on Wistar male rats (setting [2]) and in the data set on Wistar male rats (setting [3]) were 15.1 ± 41.2 s, 1.6 ± 2.9 s and 0.2 ± 0.4 s, respectively. Also, the “ventricular tachycardia” value came out at 28.7 ± 50.3 s with Wistar male rats (setting [1]), 7.6 ± 9.4 s with Wistar male rats (setting [2]) and 5.1 ± 9.3 s with Wistar male rats (setting [3]). For the same compound, the “effect on ventricular tachycardia induced by ischemia-reperfusion” value with Wistar male rats is given as “significantly reduced”.

The values are drawn from patent US6924301B1, “Composition for treating or preventing arrhythmia” (Shionogi & Co., Ltd., priority 1999, dated 2005).
